Laboratory results: patent US11096916B2, “Use of nicotinic acetylcholine receptor alpha 7 activators” (NOVARTIS AG, priority 2009, dated 2021)

Assays:
human α7-nAChR = biological target: T1, human α7-nAChR (Homo sapiens, UniProt P36544); assay: functional assay, calcium influx (FLIPR) in GH3 cells recombinantly expressing human α7-nAChR; assay type: cell-based; settings: for α7-nAChR activity Efficacy compared to epibatidine (100%): Emax, maximal effect compared to the epibatidine response
T1 construct: expressed in transfected cells; host or cells: GH3 cells (rat pituitary cell line)
T1 sequence (P36544 23-502): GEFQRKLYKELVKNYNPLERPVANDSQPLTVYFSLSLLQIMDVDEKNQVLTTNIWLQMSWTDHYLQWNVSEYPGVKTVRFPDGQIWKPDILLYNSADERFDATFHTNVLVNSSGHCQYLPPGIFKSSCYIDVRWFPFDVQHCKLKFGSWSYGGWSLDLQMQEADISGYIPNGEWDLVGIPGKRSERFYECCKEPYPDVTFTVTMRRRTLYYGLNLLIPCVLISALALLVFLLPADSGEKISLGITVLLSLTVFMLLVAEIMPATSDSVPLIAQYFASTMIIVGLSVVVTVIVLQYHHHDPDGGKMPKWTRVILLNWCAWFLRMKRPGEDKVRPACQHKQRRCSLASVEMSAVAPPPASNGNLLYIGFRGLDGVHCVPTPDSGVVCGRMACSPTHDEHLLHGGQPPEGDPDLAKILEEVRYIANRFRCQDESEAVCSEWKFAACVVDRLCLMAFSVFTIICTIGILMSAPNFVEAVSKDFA
Procedure: To assess α7-nAChR activity, a functional assay was employed using GH3 cells that recombinantly expressed human α7-nAChR. 50000 cells per well were seeded 72 h prior to the experiment on black 96-well plates (Costar) and incubated at 37° C. in a humidified atmosphere (5% CO2/95% air). On the day of the experiment, medium was removed by flicking the plates and replaced with 100 μl growth medium containing […] Fluo-4, (Molecular Probes) in the presence of 2.5 mM probenecid (Sigma). The cells were incubated at 37° C. in a humidified atmosphere (5% CO2/95% air) for 1 h. Plates were flicked to remove excess of Fluo-4, washed twice with Hepes-buffered salt solution (in mM: NaCl 130, KCl 5.4, CaCl2 2, MgSO4 0.8, NaH2PO4 0.9, glucose 25, Hepes 20, pH 7.4; HBS) and refilled with 100 μl of HBS containing antagonist when appropriate. The incubation in the presence of the antagonist lasted 3-5 minutes. Plates were placed in the cell plate stage of a FLIPR device (fluorescent imaging plate reader, Molecular Devices, Sunnyvale, Calif., USA). After recording of the baseline (laser: excitation 488 nm at 1 W, CCD camera opening of 0.4 seconds) the agonists (50 μl) were added to the cell plate using the FLIPR 96-tip pipettor while simultaneously recording the fluorescence.
Calcium kinetic data were normalized to the maximal fitted response induced by epibatidine, which is a full agonist at α7-nAChR. Four parameter Hill equations were fitted to the concentration-response. Values of Emax (maximal effect in % compared to the epibatidine response) and EC50 (concentration producing half the maximal effect in μM) were derived from this fit.

[1] = Oral bioavailability and brain penetration in mice; assay type: in vivo; settings: 30 μmol/kg p.o.
Procedure: Compounds were orally (30 μmol/kg) administered. Male mice (30-35 g, OF1/ICstrain) were sacrificed at indicated time points after oral administration. Trunk-blood was collected in EDTA-containing tubes and the brain was removed and immediately frozen on dry ice.
To 100 μl plasma 10 μl internal standard (1.0 μmol of a compound with solubility and ionization properties similar to test compounds) was added and extracted three times with 500 μl dichloromethane. The combined extracts were then dried under a stream of nitrogen and re-dissolved in 100 μl acetonitrile/water (70% acetonitrile). Brains were weighed and homogenized in water (1:5 w/v). Two 100 μl aliquots of each homogenate+10 μl of internal standard (same standard as used for the plasma samples) were extracted three times with 500 μl dichloromethane and further processed as the plasma samples. Samples were separated on Beckmann high-performance liquid chromatography equipment system with an autosampler (Gilson 233XL).
The limit of detection (LOD), defined as the lowest concentration of the extracted standard sample with a signal to noise ratio of ˜3.

mice = assay: Social Recognition Test in mice; assay type: in vivo, mouse; settings: oral, familiar partner at 24 h vs time 0
Procedure: Social interactions between two experimental animals are influenced by their degree of familiarity: the better they know each other, the less time they spend on mutual scrutiny at each meeting. […] Memory enhancing agents (i.e. oxiracetam) facilitate learning to the extent that the previously met (familiar) partner is still remembered after 24 h, whereas in vehicle treated control animals the memory usually fades after less than 1 hour (Thor and Holloway, 1982) or after 2-3 hours.
Pairs consisting of one adult and one young mouse were assigned at random to the experimental and control groups. In each pair only the adult mouse was orally treated 1 hour before the trial with either vehicle or the test compound. The duration of active contacts of the adult mouse with the young mouse was manually recorded over a period of 3 min, including the following behavioural, approach-related items: sniffing, nosing, grooming, licking, pawing and playing, anogenital exploration and orientation toward the young mouse; orientation, thereby, was defined as tip of nose of the adult mouse less than approximately 1 cm distant from the young mouse's body.
Twenty-four hours after the baseline-test, the adults in each treatment group were confronted again with […] the half of the adult animals were put together with the previously encountered (familiar) partner and the other half with another (unfamiliar) young mouse. Again the duration of active approach-behaviours was recorded during a 3-min period. Prior to re-test no oral injection was given.
In the table the reduction in time scrutinizing the familiar partner at time 24 compared with the familiar partner at time 0 minutes is given (value of zero would signify no reduction).

[2] = biological target: T2, human neuronal nAChR α4β2 (Homo sapiens, UniProt P17787+P43681); assay: similar functional assay in human epithelial cell line stably expressing human α4β2 subtype; assay type: cell-based; settings: α7-nAChR against α4β2-nAChR
T2 construct: expressed in transfected cells; host or cells: human epithelial cell line (named a human embryonic kidney cell line)
T2 sequence (P43681 29-627 limits assumed): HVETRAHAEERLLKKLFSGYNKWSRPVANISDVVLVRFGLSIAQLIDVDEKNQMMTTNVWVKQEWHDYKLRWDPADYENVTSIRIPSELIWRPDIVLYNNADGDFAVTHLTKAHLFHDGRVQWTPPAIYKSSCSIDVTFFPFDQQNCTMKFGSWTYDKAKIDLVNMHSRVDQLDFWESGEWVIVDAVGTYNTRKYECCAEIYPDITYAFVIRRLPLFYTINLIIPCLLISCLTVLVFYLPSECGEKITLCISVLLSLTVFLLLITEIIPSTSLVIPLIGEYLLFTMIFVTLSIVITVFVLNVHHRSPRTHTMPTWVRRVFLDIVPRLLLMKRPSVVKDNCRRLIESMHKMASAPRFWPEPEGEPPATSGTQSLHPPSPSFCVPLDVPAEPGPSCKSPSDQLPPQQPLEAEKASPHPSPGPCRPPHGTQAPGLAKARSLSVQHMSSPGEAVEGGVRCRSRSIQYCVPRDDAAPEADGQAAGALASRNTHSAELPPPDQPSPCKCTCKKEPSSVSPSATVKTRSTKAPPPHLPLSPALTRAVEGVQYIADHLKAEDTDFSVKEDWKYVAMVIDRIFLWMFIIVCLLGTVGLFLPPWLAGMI
T2 sequence (P17787 26-502): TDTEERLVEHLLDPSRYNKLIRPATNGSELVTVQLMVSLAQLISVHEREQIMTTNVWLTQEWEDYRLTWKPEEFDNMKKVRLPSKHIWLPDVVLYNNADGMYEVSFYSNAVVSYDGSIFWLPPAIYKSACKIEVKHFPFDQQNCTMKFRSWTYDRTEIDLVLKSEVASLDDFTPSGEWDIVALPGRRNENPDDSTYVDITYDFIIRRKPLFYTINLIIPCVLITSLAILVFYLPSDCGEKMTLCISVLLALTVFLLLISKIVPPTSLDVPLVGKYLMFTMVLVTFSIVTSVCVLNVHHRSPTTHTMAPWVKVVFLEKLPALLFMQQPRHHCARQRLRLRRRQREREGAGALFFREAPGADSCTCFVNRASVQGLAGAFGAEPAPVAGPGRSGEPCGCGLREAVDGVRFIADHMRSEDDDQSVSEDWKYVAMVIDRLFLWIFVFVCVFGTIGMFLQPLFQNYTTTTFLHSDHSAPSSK
Procedure: To assess the activity of the compound of the invention on the human neuronal nAChR α4β2, a similar functional assay is carried out using a human epithelial cell line stably expressing the human α4β2 subtype (Michelmore et al., Naunyn-Schmiedeberg's Arch. Pharmacol. (2002) 366, 235).

parkinsonian primates = assay: Assessment of antidyskinetic effect in parkinsonian primates (MPTP, levodopa-induced dyskinesia); assay type: in vivo, cynomolgus monkeys (Macaca fascicularis); settings: for Duration of Levodopa-Response / Mean Dyskinesia Score (total period): five MPTP monkeys
Procedure: Female ovariectomized cynomolgus monkeys (Macaca fascicularis) are used in the assessment. The animals can be rendered parkinsonian by continuous infusion of 1-methyl-4-phenyl-1,2,3,6-tetrahydropyridine (MPTP) until they develop a stable parkinsonian syndrome. After recuperation, animals are treated daily with levodopa until clear and reproducible dyskinesias are developed.
Monkeys are observed through a one-way screen window in their home cage. They are observed and scored repeatedly at baseline and after a standard s.c. dose of levodopa. Locomotor activity is assessed and followed with an electronic monitoring system. Antiparkinsonian responses are evaluated by measuring the locomotor activity and a Parkinson disability scale (see Hadj Tahar A et al, Clin Neuropharmacol 2000; 23:195-202; and Samadi P et al, Neuropharmacology 2003; 45:954-963). Dyskinesias are closely monitored and scored according to a dyskinesia rating scale (also described in Hadj Tahar A et al; and Samadi P et al) every 15 minutes until the end of the effect. The doses of levodopa are chosen to induce motor activation and reproducible dyskinesia but no excessive agitation.
Monkeys are observed for at least two hours following an oral administration of vehicle. On a subsequent day, the dose of levodopa selected is tested once. The animals are observed (with measures of parkinsonian and dyskinetic scores) for the entire duration of the levodopa effect and are also monitored for locomotor activity. This provides vehicle control values as well as levodopa antiparkinsonian and dyskinesia response data for comparison with combinations of a α7-nAChR agonist/positive allosteric modulator and levodopa. The monkeys are then tested with a α7-nAChR agonist/positive allosteric modulator in combination with a fixed dose of levodopa. A suspension for oral administration of the α7-nAChR agonist/positive allosteric modulator is administered before levodopa. After each dose, the animals are observed (with measures of parkinsonian and dyskinetic scores) for the entire duration of effect and monitored for locomotor activity or any change in behavior (e.g. circling, excitement, lethargy and sleepiness).
Using this protocol, compound A-1 at a dose of 20 mg/kg was tested. Results based on five monkeys (levodopa/benserazide doses: 22.5/50 mg; 65/50 mg; 30/50 mg; 35/50 mg; and 25/50 mg) are shown in FIGS. 1-4.

[3] = levodopa/benserazide without compound A-1
[4] = MPTP monkeys, A-1 20 mg/kg plus levodopa/benserazide, result in words
[5] = compound A-1 20 mg/kg oral before levodopa/benserazide

| SMILES | α7-nAChR activity Efficacy compared to epibatidine (100%) (human α7-nAChR) [%] | Brain (pmoles/g ± SD) ([1]; 0.25 hour) [pmol/g] | Brain (pmoles/g ± SD) ([1]; 0.5 hour) [pmol/g] | Brain (pmoles/g ± SD) ([1]; 1 hour) [pmol/g] | Brain (pmoles/g ± SD) ([1]; 2 hour) [pmol/g] | Brain (pmoles/g ± SD) ([1]; 4 hour) [pmol/g] | Brain (pmoles/g ± SD) ([1]; 8 hour) [pmol/g] | Brain (pmoles/g ± SD) ([1]; 24 hour) [pmol/g] | Reduction in time scrutinizing in % ± SEM at 24 h (mice; dose 0.3 mg/kg) [%] | fold selectivity [2] [fold] | also measured |
| --- | --- | --- | --- | --- | --- | --- | --- | --- | --- | --- | --- |
| C[C@H]1[C@H](Oc2ccc(-c3ccc4[nH]ccc4c3)nn2)C2CCN1CC2 [B-13, (2S,3R)-3-[6-(1H-indol-5-yl)-pyridazin-3-yloxy]-2-methyl-1-aza-bicyclo[2.2.2]octane] | 89 | 1884 ± 291 | 2960 ± 706 | 2940 ± 335 | 1260 ± 172 | 379 ± 134 | 93 ± 30 | 13 ± 4 | 37 ± 7 | 324 | Plasma (pmoles/ml ± SD) ([1]; 0.25 hour): 2196 ± 397 pmol/mL; Plasma (pmoles/ml ± SD) ([1]; 0.5 hour): 2265 ± 419 pmol/mL; Plasma (pmoles/ml ± SD) ([1]; 1 hour): 1554 ± 523 pmol/mL; Plasma (pmoles/ml ± SD) ([1]; 2 hour): 1172 ± 252 pmol/mL; Plasma (pmoles/ml ± SD) ([1]; 4 hour): 429 ± 167 pmol/mL; Plasma (pmoles/ml ± SD) ([1]; 8 hour): 80 ± 23 pmol/mL |
| N[C@@H](Cc1ccc(O)c(O)c1)C(=O)O [levodopa, reference compound] |  |  |  |  |  |  |  |  |  |  | Duration of Levodopa-Response (parkinsonian primates; [3]): 230 min; Mean Dyskinesia Score (total period) (parkinsonian primates; [3]): 2.8 |
| c1cc2cc(-c3cnc(O[C@H]4CCN5CCC[C@@H]4C5)nc3)ccc2[nH]1 [C-1, (4S,5R)-4-[5-(1H-indol-5-yl)-pyrimidin-2-yloxy]-1-aza-bicyclo[3.3.1]nonane] | 84 | 620 ± 221 | 1405 ± 539 | 1458 ± 189 | 1478 ± 259 | 842 ± 187 | 362 ± 62 |  | 51 ± 3 | 388 |  |
| C[C@H](OC(=O)N[C@@H]1CN2CCC1CC2)c1ccccc1F [A-1, (S)-(1-aza-bicyclo[2.2.2]oct-3-yl)-carbamic acid (S)-1-(2-fluoro-phenyl)-ethyl ester] | 83 |  | 706.3 ± 153.4 | 573.7 ± 109.3 | 191.9 ± 34.9 | 104.6 ± 39.6 |  | 9.1 ± 2.7 |  | 234 | EC50 (human α7-nAChR; read-out: α7-nAChR activity Potency EC50): 100 nM; antiparkinsonian activity of levodopa (antiparkinsonian score) (parkinsonian primates; [4]): does not lower; duration of the antiparkinsonian activity of levodopa (parkinsonian primates; [4]): significantly increases; levodopa-induced dyskinesias (parkinsonian primates; [4]): significantly reduces; onset of action of levodopa (Elapsed Time after Levodopa Administration) (parkinsonian primates; [4]): does not delay; Duration of Levodopa-Response (parkinsonian primates; [5]): 265 min; Mean Dyskinesia Score (total period) (parkinsonian primates; [5]): 2.1; Brain (pmoles/g ± SD) ([1]; 6 hour): 40.5 ± 12.1 pmol/g; Reduction in time scrutinizing in % ± SEM at 24 h (mice; dose 3 mg/kg): 52 ± 4% |
